Tested on: MV-4-11 cells
Assay: Gene expression microarray analysis (Affymetrix PrimeView) and GSEA
Type: cell-based, human
Set-up: RFU PODN (11730768_x_at) / Fold change /veh PODN (11730768_x_at) / RFU LINC00158 (11744669_a_at) / Fold change /veh LINC00158 (11744669_a_at) / RFU DUSP10 (11751237_a_at) / Fold change /veh DUSP10 (11751237_a_at) / RFU ID3 (11757404_x_at) / Fold change /veh ID3 (11757404_x_at) / RFU PLEKHG5 (11737974_s_at) / Fold change /veh PLEKHG5 (11737974_s_at) / RFU LRRC4B (11730491_at) / Fold change /veh LRRC4B (11730491_at) / RFU GIMAP4 (11747438_a_at) / Fold change /veh GIMAP4 (11747438_a_at) / RFU KRT8 (11758183_x_at) / Fold change /veh KRT8 (11758183_x_at) / RFU CNN1 (11734310_a_at) / Fold change /veh CNN1 (11734310_a_at) / RFU VPS37D (11726825_at) / Fold change /veh VPS37D (11726825_at) / RFU C10orf10 (11716522_x_at) / Fold change /veh C10orf10 (11716522_x_at) / RFU KIR2DL2 /// KIR2DL4 /// KIR2DL5A /// KIR2DL5B /// KIR2DS1 /// KIR2DS2 /// KIR2DS3 /// KIR2DS4 /// KIR3DL3 /// KIR3DL3 /// KIR3DS1 (11738374_at) / Fold change /veh KIR2DL2 /// KIR2DL4 /// KIR2DL5A /// KIR2DL5B /// KIR2DS1 /// KIR2DS2 /// KIR2DS3 /// KIR2DS4 /// KIR3DL3 /// KIR3DL3 /// KIR3DS1 (11738374_at) / RFU C1QL1 (11718748_at) / Fold change /veh C1QL1 (11718748_at) / RFU TMPRSS4 (11747572_a_at) / Fold change /veh TMPRSS4 (11747572_a_at) / RFU HAMP (11756126_x_at) / Fold change /veh HAMP (11756126_x_at) / RFU RNFT2 (11725882_a_at) / Fold change /veh RNFT2 (11725882_a_at) / RFU NR4A2 (11747474_a_at) / Fold change /veh NR4A2 (11747474_a_at) / RFU ABCC12 (11746883_a_at) / Fold change /veh ABCC12 (11746883_a_at) / RFU TMEM136 (11760407_x_at) / Fold change /veh TMEM136 (11760407_x_at) / RFU CLDN22 /// WWC2 (11732394_at) / Fold change /veh CLDN22 /// WWC2 (11732394_at) / RFU HLA-DPB1 (11760878_x_at) / Fold change /veh HLA-DPB1 (11760878_x_at) / RFU SPINT1 (11716480_a_at) / Fold change /veh SPINT1 (11716480_a_at) / RFU GAP43 (11754022_s_at) / Fold change /veh GAP43 (11754022_s_at) / RFU A4GNT (11735810_at) / Fold change /veh A4GNT (11735810_at) / RFU PRB3 (11715151_x_at) / Fold change /veh PRB3 (11715151_x_at) / RFU TUBB4B (11761932_at) / Fold change /veh TUBB4B (11761932_at) / RFU CAPN14 (11732068_a_at) / Fold change /veh CAPN14 (11732068_a_at) / RFU TMCC2 (11721928_a_at) / Fold change /veh TMCC2 (11721928_a_at) / RFU IRGQ (11745062_a_at) / Fold change /veh IRGQ (11745062_a_at) / RFU FAM174B (11720279_a_at) / Fold change /veh FAM174B (11720279_a_at) / RFU TMPRSS4 (11748680_a_at) / Fold change /veh TMPRSS4 (11748680_a_at) / RFU FAM212B (11763350_a_at) / Fold change /veh FAM212B (11763350_a_at) / RFU PLEKHG5 (11743358_a_at) / Fold change /veh PLEKHG5 (11743358_a_at) / RFU ZSCAN30 (11745921_a_at) / Fold change /veh ZSCAN30 (11745921_a_at) / RFU CMKLR1 (11741424_a_at) / Fold change /veh CMKLR1 (11741424_a_at) / RFU LOC101060620 /// MAPK8IP1 (11723275_at) / Fold change /veh LOC101060620 /// MAPK8IP1 (11723275_at) / RFU SPTSSB (11747773_x_at) / Fold change /veh SPTSSB (11747773_x_at) / RFU PRSS12 (11739890_at) / Fold change /veh PRSS12 (11739890_at) / RFU BIN1 (11741810_x_at) / Fold change /veh BIN1 (11741810_x_at) / RFU WNT11 (11732464_a_at) / Fold change /veh WNT11 (11732464_a_at) / RFU C10orf10 (11716521_a_at) / Fold change /veh C10orf10 (11716521_a_at) / RFU C5orf56 (11738089_at) / Fold change /veh C5orf56 (11738089_at) / RFU CYB561 (11721691_x_at) / Fold change /veh CYB561 (11721691_x_at) / RFU ANKRD19P (11752326_a_at) / Fold change /veh ANKRD19P (11752326_a_at) / RFU OR2T12 /// OR2T33 /// OR2T8 (11738714_s_at) / Fold change /veh OR2T12 /// OR2T33 /// OR2T8 (11738714_s_at) / RFU VCAN (11748164_a_at) / Fold change /veh VCAN (11748164_a_at) / RFU JSRP1 (11732532_at) / Fold change /veh JSRP1 (11732532_at) / RFU KRTAP10-11 (11738290_x_at) / Fold change /veh KRTAP10-11 (11738290_x_at) / RFU MYO3A (11730013_a_at) / Fold change /veh MYO3A (11730013_a_at) / RFU EBF3 (11725865_a_at) / Fold change /veh EBF3 (11725865_a_at) / RFU CAMK2N1 (11719241_x_at) / Fold change /veh CAMK2N1 (11719241_x_at) / RFU C5orf56 (11738088_a_at) / Fold change /veh C5orf56 (11738088_a_at) / RFU OLFML3 (11715873_a_at) / Fold change /veh OLFML3 (11715873_a_at) / RFU LOC100653217 /// NTM (11731650_a_at) / Fold change /veh LOC100653217 /// NTM (11731650_a_at) / RFU MAPK11 (11762145_a_at) / Fold change /veh MAPK11 (11762145_a_at) / RFU FIZ1 (11724087_x_at) / Fold change /veh FIZ1 (11724087_x_at) / RFU OASL (11726364_x_at) / Fold change /veh OASL (11726364_x_at) / RFU SOX15 (11748057_x_at) / Fold change /veh SOX15 (11748057_x_at) / RFU CD79A (11719716_a_at) / Fold change /veh CD79A (11719716_a_at) / RFU HIST1H1D (11736915_at) / Fold change /veh HIST1H1D (11736915_at) / RFU CASKIN2 (11723855_a_at) / Fold change /veh CASKIN2 (11723855_a_at) / RFU LOC730098 (11760151_x_at) / Fold change /veh LOC730098 (11760151_x_at) / RFU OR4N2 (11742367_at) / Fold change /veh OR4N2 (11742367_at) / RFU PRRT2 (11749266_a_at) / Fold change /veh PRRT2 (11749266_a_at) / RFU SNX32 (11753110_a_at) / Fold change /veh SNX32 (11753110_a_at) / RFU CDHR5 (11726645_a_at) / Fold change /veh CDHR5 (11726645_a_at) / RFU RCAN1 (11760418_a_at) / Fold change /veh RCAN1 (11760418_a_at) / RFU FAM167A (11723789_a_at) / Fold change /veh FAM167A (11723789_a_at) / RFU FAM26E (11764081_at) / Fold change /veh FAM26E (11764081_at) / RFU ISYNA1 (11749810_s_at) / Fold change /veh ISYNA1 (11749810_s_at) / RFU ACY1 (11761880_at) / Fold change /veh ACY1 (11761880_at) / RFU 11764098_at / Fold change /veh 11764098_at / RFU SAMD14 (11745864_x_at) / Fold change /veh SAMD14 (11745864_x_at) / RFU NPB (11741838_a_at) / Fold change /veh NPB (11741838_a_at) / RFU TMPRSS6 (11731388_a_at) / Fold change /veh TMPRSS6 (11731388_a_at) / RFU KRTAP10-2 (11738614_at) / Fold change /veh KRTAP10-2 (11738614_at) / RFU ARHGAP8 /// PRR5-ARHGAP8 (11727945_x_at) / Fold change /veh ARHGAP8 /// PRR5-ARHGAP8 (11727945_x_at) / RFU KRTAP5-7 /// NADSYN1 (11734609_at) / Fold change /veh KRTAP5-7 /// NADSYN1 (11734609_at) / RFU RASL12 (11751679_a_at) / Fold change /veh RASL12 (11751679_a_at) / RFU CDKN2B (11736163_a_at) / Fold change /veh CDKN2B (11736163_a_at) / RFU PRF1 (11729649_at) / Fold change /veh PRF1 (11729649_at) / RFU, ZNF638 /// ZNF638-IT1 / Fold change vs veh, ZNF638 /// ZNF638-IT1 / RFU, PANK3 / Fold change vs veh, PANK3 / RFU, SH3YL1 / Fold change vs veh, SH3YL1 / RFU, ZEB2 / Fold change vs veh, ZEB2 / RFU, NRIP1 / Fold change vs veh, NRIP1 / RFU, PTTG1IP / Fold change vs veh, PTTG1IP / RFU, CAPN2 / Fold change vs veh, CAPN2 / RFU, MED14 / Fold change vs veh, MED14 / RFU, SNORA58 / Fold change vs veh, SNORA58 / RFU, C1orf63 / Fold change vs veh, C1orf63 / RFU, LRRFIP1 / Fold change vs veh, LRRFIP1 / RFU, NDUFAF7 / Fold change vs veh, NDUFAF7 / RFU, SLC12A2 / Fold change vs veh, SLC12A2 / RFU, IBTK / Fold change vs veh, IBTK / RFU, ESF1 / Fold change vs veh, ESF1 / Fold change vs veh, TMEM50B / RFU, TAOK1 / Fold change vs veh, TAOK1 / RFU, ACBD3 / Fold change vs veh, ACBD3 / RFU, TMA16 / Fold change vs veh, TMA16 / RFU, RWDD3 / Fold change vs veh, RWDD3 / RFU, BCAT1 / Fold change vs veh, BCAT1 / RFU, EDEM3 / Fold change vs veh, EDEM3 / RFU, TMEM33 / Fold change vs veh, TMEM33 / RFU, WDR75 / Fold change vs veh, WDR75 / RFU, AHCTF1 / Fold change vs veh, AHCTF1 / RFU, TFRC / Fold change vs veh, TFRC / RFU, ZDHHC17 / Fold change vs veh, ZDHHC17 / RFU, NOM1 / Fold change vs veh, NOM1 / RFU, ARL8B / Fold change vs veh, ARL8B / RFU, ZBTB11 / Fold change vs veh, ZBTB11 / RFU, TAMM41 / Fold change vs veh, TAMM41 / RFU, KIAA1704 /// LOC100996395 / Fold change vs veh, KIAA1704 /// LOC100996395 / RFU, ING1 / Fold change vs veh, ING1 / RFU, TRMT61B / Fold change vs veh, TRMT61B / RFU, FUBP3 / Fold change vs veh, FUBP3 / RFU, TP53 / Fold change vs veh, TP53 / RFU, TNKS2 / Fold change vs veh, TNKS2 / RFU, ZFP14 / Fold change vs veh, ZFP14 / RFU, ACTR2 / Fold change vs veh, ACTR2 / RFU, PPP3R1 / Fold change vs veh, PPP3R1 / RFU, PIK3R1 / Fold change vs veh, PIK3R1 / RFU, HNRNPA1 / Fold change vs veh, HNRNPA1 / RFU, RNF170 / Fold change vs veh, RNF170 / RFU, ZNF28 / Fold change vs veh, ZNF28 / RFU, RNGTT / Fold change vs veh, RNGTT / RFU, OGT / Fold change vs veh, OGT / RFU, BRD1 / Fold change vs veh, BRD1 / RFU, MARS / Fold change vs veh, MARS / RFU, ZNF655 / Fold change vs veh, ZNF655 / RFU, FAHD1 / Fold change vs veh, FAHD1 / RFU, BDP1 / Fold change vs veh, BDP1 / RFU, LRRCC1 / Fold change vs veh, LRRCC1 / RFU, ARID1A / Fold change vs veh, ARID1A / RFU, ZNF146 / Fold change vs veh, ZNF146 / RFU, ZNF330 / Fold change vs veh, ZNF330 / RFU, GPN3 / Fold change vs veh, GPN3 / RFU, C9orf123 / Fold change vs veh, C9orf123 / RFU, N4BP2L2 / Fold change vs veh, N4BP2L2 / RFU, ARFIP1 / Fold change vs veh, ARFIP1 / RFU, FAM179B / Fold change vs veh, FAM179B / RFU, BCL10 / Fold change vs veh, BCL10 / RFU, UHRF1BP1L / Fold change vs veh, UHRF1BP1L / RFU, BET1 / Fold change vs veh, BET1 / RFU, CNOT2 / Fold change vs veh, CNOT2 / RFU, ZNF268 / Fold change vs veh, ZNF268 / Fold change vs veh, ZNF507 / RFU, DGCR2 / Fold change vs veh, DGCR2 / RFU, WDSUB1 / Fold change vs veh, WDSUB1 / Fold change vs veh, HSP90B1 /// MIR3652 / RFU, ADSS / Fold change vs veh, ADSS / RFU, GK / Fold change vs veh, GK / RFU, ZNF148 / Fold change vs veh, ZNF148 / RFU, TAF9 / Fold change vs veh, TAF9 / RFU, SLC1A5 / Fold change vs veh, SLC1A5 / RFU, SLMO2 / Fold change vs veh, SLMO2 / RFU, ABCC4 / Fold change vs veh, ABCC4 / RFU, LOC101060439 /// RAP1B / Fold change vs veh, LOC101060439 /// RAP1B / RFU, RFX7 / Fold change vs veh, RFX7 / RFU, GTPBP10 / Fold change vs veh, GTPBP10 / RFU, CNEP1R1 / Fold change vs veh, CNEP1R1 / RFU, BIVM-ERCC5 /// ERCC5 / Fold change vs veh, BIVM-ERCC5 /// ERCC5 / RFU, ILF3 / Fold change vs veh, ILF3 / RFU 11762660_at / Fold change /veh 11762660_at / RFU VCAN (11757783_s_at) / Fold change /veh VCAN (11757783_s_at) / RFU DDX43 (11728927_at) / Fold change /veh DDX43 (11728927_at) / RFU KRT8 (11758188_x_at) / Fold change /veh KRT8 (11758188_x_at) / RFU NKD1 (11759106_at) / Fold change /veh NKD1 (11759106_at) / RFU SRD5A1 (11742802_a_at) / Fold change /veh SRD5A1 (11742802_a_at) / RFU TPSAB1 /// TPSB2 (11721975_s_at) / Fold change /veh TPSAB1 /// TPSB2 (11721975_s_at) / RFU GSTM3 (11746129_a_at) / Fold change /veh GSTM3 (11746129_a_at) / RFU IL23R (11737362_x_at) / Fold change /veh IL23R (11737362_x_at) / RFU TMEM51 (11727254_a_at) / Fold change /veh TMEM51 (11727254_a_at) / RFU PIWIL2 (11732686_x_at) / Fold change /veh PIWIL2 (11732686_x_at) / RFU ORM1 (11744905_x_at) / Fold change /veh ORM1 (11744905_x_at) / RFU CCDC152 (11743942_at) / Fold change /veh CCDC152 (11743942_at) / RFU ECM1 (11717891_a_at) / Fold change /veh ECM1 (11717891_a_at) / RFU IL23R (11748794_a_at) / Fold change /veh IL23R (11748794_a_at) / RFU TNFAIP8L3 (11732012_x_at) / Fold change /veh TNFAIP8L3 (11732012_x_at) / RFU MBOAT4 (11741988_at) / Fold change /veh MBOAT4 (11741988_at) / RFU 11764193_at / Fold change /veh 11764193_at / RFU TMEM53 (11763286_at) / Fold change /veh TMEM53 (11763286_at) / RFU MAGEB2 (11727129_at) / Fold change /veh MAGEB2 (11727129_at) / RFU TMEM200A (11744735_a_at) / Fold change /veh TMEM200A (11744735_a_at) / RFU CCDC152 (11751479_a_at) / Fold change /veh CCDC152 (11751479_a_at) / RFU FAM211A (11726209_a_at) / Fold change /veh FAM211A (11726209_a_at) / RFU RGS16 (11746705_a_at) / Fold change /veh RGS16 (11746705_a_at) / RFU VCAN (11755009_s_at) / Fold change /veh VCAN (11755009_s_at) / RFU RHOB (11743442_s_at) / Fold change /veh RHOB (11743442_s_at) / RFU RGS16 (11720943_a_at) / Fold change /veh RGS16 (11720943_a_at) / RFU RGS16 (11720944_at) / Fold change /veh RGS16 (11720944_at) / RFU, VPS4B / Fold change vs veh, VPS4B / RFU, CREB1 / Fold change vs veh, CREB1 / RFU, DNAJC13 / Fold change vs veh, DNAJC13 / RFU, GNAQ / Fold change vs veh, GNAQ / RFU, CDK5R1 / Fold change vs veh, CDK5R1 / RFU, ZRANB3 / Fold change vs veh, ZRANB3 / RFU, CUL4A / Fold change vs veh, CUL4A / RFU, CCNY / Fold change vs veh, CCNY / RFU, UFL1 / Fold change vs veh, UFL1 / RFU, COG3 / Fold change vs veh, COG3 / RFU, DIAPH2 / Fold change vs veh, DIAPH2 / RFU, SKA2 / Fold change vs veh, SKA2 / RFU, AFF3 / Fold change vs veh, AFF3 / RFU, LMF1 / Fold change vs veh, LMF1 / RFU, IPO11 / Fold change vs veh, IPO11 / RFU, DFFB / Fold change vs veh, DFFB / RFU, FOXP1 / Fold change vs veh, FOXP1 / RFU, CARD8 / Fold change vs veh, CARD8 / RFU, STRN3 / Fold change vs veh, STRN3 / RFU, ADK / Fold change vs veh, ADK / RFU, RASSF2 / Fold change vs veh, RASSF2 / RFU, WIPF1 / Fold change vs veh, WIPF1 / RFU, LARP1B / Fold change vs veh, LARP1B / RFU, RASA1 / Fold change vs veh, RASA1 / RFU, RB1 / Fold change vs veh, RB1 / RFU, PPFIA1 / Fold change vs veh, PPFIA1 / RFU, MAT2A / Fold change vs veh, MAT2A / RFU, CCT5 / Fold change vs veh, CCT5 / RFU, WDR92 / Fold change vs veh, WDR92 / RFU, CUX1 / Fold change vs veh, CUX1 / RFU, TTC7A / Fold change vs veh, TTC7A / RFU, TMEM135 / Fold change vs veh, TMEM135 / RFU, DEPTOR / Fold change vs veh, DEPTOR / RFU, CPM / Fold change vs veh, CPM / RFU, DNAJB6 / Fold change vs veh, DNAJB6 / RFU, CACNA2D3 / Fold change vs veh, CACNA2D3 / RFU, DTX4 / Fold change vs veh, DTX4 / RFU, TFCP2 / Fold change vs veh, TFCP2 / RFU, GMCL1 /// GMCL1P1 / Fold change vs veh, GMCL1 /// GMCL1P1 / RFU, AEBP2 / Fold change vs veh, AEBP2 / RFU, SNHG1 /// SNORD22 /// SNORD25 /// SNORD26 /// SNORD27 /// SNORD28 /// SNORD29 /// SNORD31 / Fold change vs veh, SNHG1 /// SNORD22 /// SNORD25 /// SNORD26 /// SNORD27 /// SNORD28 /// SNORD29 /// SNORD31 / Fold change (Aza/veh), C12orf56 (ProbeSet 11735607_a_at) / Fold change (ACY-1035/veh), C12orf56 (ProbeSet 11735607_a_at) / Fold change (Aza/veh), FGFR1OP (ProbeSet 11751329_s_at) / Fold change (ACY-1035/veh), FGFR1OP (ProbeSet 11751329_s_at) / Fold change (Aza/veh), VPS36 (ProbeSet 11739960_a_at) / Fold change (ACY-1035/veh), VPS36 (ProbeSet 11739960_a_at) / RFU SYPL1 (11715823_x_at) / Fold change /veh SYPL1 (11715823_x_at) / RFU IGFBP7 (11715501_s_at) / Fold change /veh IGFBP7 (11715501_s_at) / RFU REEP3 (11722064_at) / Fold change /veh REEP3 (11722064_at) / RFU IGLL1 (11728026_x_at) / Fold change /veh IGLL1 (11728026_x_at): dose or concentration left out as unconfirmed
Conditions: MV-4-11 cells, 48 hours

`Nc1ncn([C@@H]2O[C@H](CO)[C@@H](O)[C@H]2O)c(=O)n1` [azacitidine] was tested, and the “Fold change /veh VCAN (11757783_s_at)” value was 1.30.
